Patent publication US9023803B2, “Cancer therapy based on tumor associated antigens derived from cyclin D1” (Immatics Biotechnologies GmbH, priority 2010, dated 2015)

Legend:
patients = experiment: Clinical study of vaccine IMA901 with or without prior cyclophosphamide; format: in vivo, human
Excerpt: (§1) Some patients received a prior TKI therapy with sunitinib or sorafenib, others a prior cytokine therapy with interferon or interleukin.
Both patient groups were followed up for progression-free survival (PFS) and overall survival (OS).

regulatory T cells = conditions: low-dose cyclophosphamide 300 mg/m^2 single infusion before vaccination
Excerpt: Absolute counts are shown in (A), percent change from baseline is shown in (B).
as §1

HLA-A*02 = experiment: HLA-restriction: binding to HLA-A*02; design: species or system human
HLA-A*68 = experiment: HLA-restriction: binding to HLA-A*68; design: species or system human
HLA-A*26 = experiment: HLA-restriction: binding to HLA-A*26; design: species or system human
CTL = conditions: HLA-A2+ healthy donors, colon cancer and mantle cell lymphoma patients; CD40-activated B cells as APCs; cited from earlier work
cancer patients = experiment: Prevaccination T cell responses in cancer patients; format: in vivo, human; conditions: certain cancer patients
Excerpt: A further aspect of the invention then relates to the use of the peptide or combination according to the invention as a diagnostic tool in the diagnosis of cancer. Basically, the presence of the peptides or a combination thereof in the patient indicates cancer. […] Again, for the diagnosis, the peptides can be labeled. Furthermore, antibodies against the peptides (or combinations) can also be used. The diagnosis can be performed in vivo or in vitro.

[1] = tested on: HLA-A*02 positive tumor cells endogenously expressing Cyclin D1; conditions: allo-restricted T cells of HLA-A2-negative donors; cited from earlier work
HLA A*0201 = HLA A*0201 (Homo sapiens, UniProt P04439, D140Y/D185E/D98H/E176V/E277Q/G131W/G231S/I119V/I121R/I166T/I218V/L300P/L318F/N151K/N90K/P208A/P217A/Q86G/Q94H/R138H/R169H/T345S); experiment: ELISA-based HLA binding method (Sylvester-Hvid et al., 2002)
HLA class-II = experiment: HLA-restriction: binding to HLA class-II; design: species or system human

O=P1(N(CCCl)CCCl)NCCCO1 (stereo not drawn) [cyclophosphamide, reference compound]
outcome of the treatment using the vaccine after prior low-dose cyclophosphamide (patients; single infusion 300 mg/m^2 before IMA901): significantly improved | number of regulatory T cells (regulatory T cells): reduced

ALLESSLRQA (listed as Homo sapiens) [CCN-007, cyclin D1-derived peptide, aa 253-262]
binding to HLA-A*02 (HLA-A*02): moderate binder

ETIPLTAEKL [CCN-006]
binding to HLA-A*68 (HLA-A*68): seems to be a HLA-A*68 binder

EVFPLAMNY (listed as Homo sapiens) [CCN-004, cyclin D1-derived peptide, aa 76-84]
binding to HLA-A*26 (HLA-A*26): high binding | binding to HLA-A*02 (HLA-A*02): practically no binding

LLGATCMFV (listed as Homo sapiens) [CCN-001, cyclin D1-derived peptide, aa 101-109]
survival of patients responding against CCN-001 versus non-CCN-001-responding patients (patients; all vaccinated patients): significant longer survival | favorable effect of T cell response against CCN-001 on survival (patients; patient group pretreated with cyclophosphamide): even more evident | generation of CTL specific for the epitope (CTL): could be generated | prevaccination responses (cancer patients): found | lysis of Cyclin D1 expressing HLA-A*02 positive tumor cells by T cell clones recognizing the peptide [1]: could lyze | binding to HLA A*0201 (HLA A*0201): Good binding

NPPSMVAAGSVVAAV (listed as Homo sapiens) [CCN-003, cyclin D1-derived peptide, aa 198-212]
HLA restriction (HLA class-II): DRB1*0401 restricted | binding to HLA class-II (HLA class-II): binds

YLSGANLNL (listed as Homo sapiens) [CEA-004]
prevaccination responses (cancer patients): found
